Results published in patent US20080254480A1, “MICROCYTOXICITY ASSAY BY PRE-LABELING TARGET CELLS” (University of Pittsburgh - Of the Commonwealth System of …, priority 2007, published 2008).

Experiments:
[1] = system: target cells; assay: Functional properties of BrdU labeled target cells (viability, proliferation, TNF family receptor expression); assay type: cell-based; settings: trypan blue dye exclusion; increase of cell numbers in culture; flow cytometry
From the text: In order to determine whether BrdU labeling of cell nuclear DNA affects cellular functions, the inventor examined viability (by trypan blue dye exclusion assay) and proliferation (by evaluation of increase of cell numbers in culture) of target cells, after they were labeled with the DNA metabolic label. In addition, expression of the cell membrane-bound TNF family receptors involved in apoptosis mediated by immune effector cells, such as TNFR1, TNFR2, Fas and LT-βR, was investigated using flow cytometry.

[2] = system: BT-20 tumor cells; assay: BrdU labeling of cell nuclear DNA of target cells in microwells of Tarasaki plates; assay type: cell-based, human; settings: 5 μM of BrdU, co-incubated for 24 hours
Method: FIG. 2. Graph depicting BrdU concentration versus incubation period for labeling of target cells in microwells of Tarasaki plates. BT-20 tumor cells (250/microwell) were seeded in the miniplates and incubated for 24 hours. Various concentrations of BrdU then were added to the microwells containing adherent tumor cells, and the incubation was continued for various periods of time, as indicated. After this labeling, the adherent tumor cells were fixed and stained, with an isotype-matched control or an anti-BrdU mAb, and then visually analyzed. Each point on the figure represents a mean value of a triplicate. SD was less than 10% of the mean values.
BrdU-labeling of target cells in microwells. Suspensions of tumor target cells were prepared from their adherent monolayers, as described above. Target cells were resuspended in tissue culture medium (e.g., RPMI-1640 supplemented with 10% FCS) in an adequate concentration, to contain 100 to 500 cells per 10 μl. BrdU solution was added to this cell suspension, to get its final concentration of 5 μM. In some experiments, to determine the optimal labeling conditions, the concentration of BrdU was varied. […]

## O=c1[nH]c(=O)n([C@H]2C[C@H](O)[C@@H](CO)O2)cc1Br [BrdU, 5-bromo-2′-deoxyuridine]
[1]
  effect of BrdU labeling on cellular functions tested (viability, proliferation, expression of TNFR1, TNFR2, Fas and LT-βR): no significant effect
[2]
  strong and uniformed labeling of nuclei: 90%
